This note sets out measurements from US9572788B2, “Cell permeable inhibitors of anaphase promoting complex” (President and Fellows of Harvard College, priority 2014, dated 2017).

Structures are written as SMILES.

The target of assay [1] is T1, APC (Homo sapiens, UniProt P30260).
T1 construct: endogenous in cells; host or cells: HeLa cells (synchronised; some with Mad2/BubR1 siRNA and cyclin B1-delta107 adenovirus)
The assay is described as follows: Cdc20/Cdh1 binding assay in HeLa cells (APC immunoprecipitation). The assay is classed as cell-based. The protocol: HeLa cells in DMEM 10% FBS were plated in T25 flasks at 20% confluence one day prior to the experiment. They were then synchronized by a double thymidine block (18 h for the first block, 8 h release and another 18 h for the second block, thymidine concentration: 2 mM). For analysis of Cdh1 binding, cells were released into […] from the second thymidine block for 13 h and then washed into fresh medium. Six h later, cells were treated with 12 μM proTAME or proAAME or 0.06% DMSO for 2 h and then collected by trypin digestion. For analysis of Cdc20 binding, cells were transfected with indicated siRNAs during the first release from thymidine block after two washes with DPBS (CellGro 21-030-CV) and addition of 6.3 ml OptiMEM. A volume (79 μl) of 20 μl Control siRNA#3 or a 1:1 mix of 20 μl MAD2 siRNA and BubR1 siRNA (Dharmacon D-004101-01, 5′-[…]-3′ (SEQ ID NO: 11)) was mixed in 1381 μl OptiMEM in a tube, 23.7 μl OligoFectamine were mixed with 94.1 μl OptiMEM in a second tube. After 5 min incubation at RT, the tubes contents were mixed and siRNA-reagent complexes were allowed to form for 20 min at RT. The transfection mixes were added to cells in OptiMEM and FBS was added to 10% after 5 h transfection. Cyclin B1-Δ107 expressing adenovirus (1:100) was added at the start of the second thymidine block and kept in the medium for all subsequent steps. Cells were treated at 10 h after release with 100 nM okadaic acid, 25 μg/ml cycloheximide and 12 μM proTAME as indicated. After 2 h treatment, cells were collected by mitotic shake-off. Cell pellets were washed twice with DPBS and flash-frozen with liquid nitrogen and stored at −80° C. until use. Cell lysis and APC immunoprecipitation were performed as described above.

For assay [2], the system named is HeLa H2B-GFP cells. The assay can be described thus: Emi1 knockdown and proTAME rescue. The class given is cell-based, human. To be noted: 12 μM. As to the method:
HeLa H2B-GFP cells were plated in glass-bottom 24-well plates at 20% confluence one day prior to the experiment. Cells were transfected with a pool of Emi1 siRNA (Dharmacon M-012434-01, 5′-[…]-3′ (SEQ ID NO: 4); 5′-[…]-3′ (SEQ ID NO: 5); 5′-[…]-3′ (SEQ ID NO: 6); 5′-[…]-3′ (SEQ ID NO: 7)) or Control#3 siRNA (described above) at 18.5 nM with DharmaFect3. After 24 h, cells were treated with 0.06% DMSO or 12 μM proTAME. Live cell imaging was set up as described above.

The test system of assay [3] is U2OS-H2B-GFP cells. The assay can be described thus: Fluorescence live cell imaging with survival (Cox) analysis, U2OS. The class given is cell-based, human. The note with it: proTAME 12 μM. As to the method:
Mitotic duration and cell fate were determined by manual inspection of the movies and plotted as Kaplan-Meier curves. The hatch marks on the Kaplan-Meier curved indicate mitotic duration endpoints of censored cells. Includes the combined results of five independent experiments. […] Pairwise comparison between proTAME and proTAME+apcin-M tested using a Cox proportional hazards model stratified by date, using data from only the experimental blocks in which both proTAME and proTAME+apcin were tested.
Movies were manually analyzed using Nikon Elements software or Image J.
Plates were inserted into a covered chamber supplied with humidified 5% CO2 and mounted onto a motorized microscope stage (Prior Scientific). […] A Hamamatsu ORCA cooled CCD camera collected the images with 2×2 binning using Nikon Elements software (version 3.0). Movies were manually analyzed using Nikon Elements software or ImageJ. Mitotic duration was defined as the time from nuclear envelope breakdown until anaphase, in the case of normal mitosis, or until exit from prolonged mitosis as indicated by cytoplasmic blebbing accompanied by changes in chromatin as detected by H2B-GFP.
The Cox proportional hazards model is a semiparameteric approach to modeling time-to-event data, in which covariates are assumed to have constant proportional effects over time relative to a baseline hazard function that can take any form. In this case, stratification on “person” (the individual who analyzed the movie) and “date” (the date the assay was run) allow the baseline hazard function to differ across experimental blocks, but assume a fixed effect of treatment across experimental blocks. The model is thus: hi(t|Z=j)=hj(t)exp(β1×apcini+β2×apcinMi+β3×proTAMEi+β4×proTAMEi:apcinMi+β5×proTAMEi:apcini), j=1 . . . […] This model was fit separately to cells treated with control siRNA or Mad2 siRNA. All statistical analysis was carried out in R 3.0.0 using the functions available as part of the survival package.

A short description of assay [4]: Effect on mitosis in MCF10a cells. The assay is classed as cell-based. To be noted: similar doses.
Assay [5] concerns HeLa cells. The assay is described as follows: Endogenous APC substrate levels by immunoblot in synchronized HeLa cells. The class given is cell-based, human. To be noted: 12 μM. The protocol: FIG. 1E is a series of photographs of gel electrophoresis analysis showing that proTAME stabilizes endogenous APC substrates. HeLa cells were synchronized by double thymidine procedure and released into compounds (12 μM). Protein levels were measured by immunoblot.
A general note: A western blot detects proteins with antibodies after separation by electrophoresis.

T1 sequence (P30260 whole entry): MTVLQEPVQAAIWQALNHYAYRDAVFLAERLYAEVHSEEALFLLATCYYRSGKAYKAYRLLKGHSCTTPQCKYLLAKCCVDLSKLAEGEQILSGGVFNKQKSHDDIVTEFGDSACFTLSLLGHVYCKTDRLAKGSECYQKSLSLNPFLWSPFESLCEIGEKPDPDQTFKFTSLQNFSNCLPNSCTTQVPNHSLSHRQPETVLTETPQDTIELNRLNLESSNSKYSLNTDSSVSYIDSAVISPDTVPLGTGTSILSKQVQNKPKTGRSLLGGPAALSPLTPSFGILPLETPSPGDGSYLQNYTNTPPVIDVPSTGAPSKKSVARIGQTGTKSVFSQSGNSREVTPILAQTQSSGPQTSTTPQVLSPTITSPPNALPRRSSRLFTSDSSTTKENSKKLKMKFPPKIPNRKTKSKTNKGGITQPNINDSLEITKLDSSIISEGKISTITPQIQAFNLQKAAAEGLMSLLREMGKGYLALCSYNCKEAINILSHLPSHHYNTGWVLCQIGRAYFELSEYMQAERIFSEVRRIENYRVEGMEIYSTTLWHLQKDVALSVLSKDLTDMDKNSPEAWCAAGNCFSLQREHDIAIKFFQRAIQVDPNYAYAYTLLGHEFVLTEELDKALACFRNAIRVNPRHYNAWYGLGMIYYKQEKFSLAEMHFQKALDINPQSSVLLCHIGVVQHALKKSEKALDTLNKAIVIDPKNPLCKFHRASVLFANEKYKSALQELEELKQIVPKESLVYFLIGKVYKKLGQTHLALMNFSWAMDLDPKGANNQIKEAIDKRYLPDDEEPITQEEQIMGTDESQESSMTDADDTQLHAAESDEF

For the molecule `COC(=O)[C@H](CCCN/C(=N\C(=O)OCOC(=O)Cc1ccccc1)NC(=O)OCOC(=O)Cc1ccccc1)NS(=O)(=O)c1ccc(C)cc1` [proTAME], in assay [1] (HeLa arrested by nondegradable cyclin B, 12 μM), the “Dissociation of Cdc20 from the APC” value is “induced significant dissociation of Cdc20 from the APC, but only if SAC proteins were depleted by RNAi”. Besides, the “Cdh1 association with the APC” value in assay [1] (HeLa cells in G1, 12 μM) is recorded as “inhibited Cdh1 association with the APC”. The “Reduction in Cdc20 binding to the APC” value in assay [1] (HeLa, 12 μM plus 10 μM MG132 for 2 hours) is 30%. The “Rescue of mitotic entry defect in Emi1-depleted cells” value in assay [2] is on record as “substantially rescued the mitotic entry defect caused by depletion of Emi1”. Moreover, the “Median mitotic duration” value in assay [3] (Table 7, apcin or apcin-M 25 μM) is listed as 180. Further, the “% rate of mitotic exit” value in assay [3] (relative to DMSO control, Cox model, apcin/apcin-M 25 μM) was 3.63%. In addition, the “Effect on mitotic duration” value in assay [4] was “had no effect”. Also, in assay [5], the “Stabilization of endogenous cyclin B and securin” value is “dramatically stabilized”.
